Where two headings read alike, the source gives them in different places.

One data set deals with primary astrocytes. The settings on record: 5 hr, LDH 24 hr later, PDM.
For data set [1], the system named is astrocytes. The data set can be described thus: DAPI staining, astrocyte cell number. The data set is classed as cell-based, Wistar rat. The settings on record: for cell numbers (DAPI) vs control: n = 4, triplicates, Dunnett's. As to the method:
Astrocytes were seeded in 96‐well plate (1 × 10^4 per well) and fixed in 4% paraformaldehyde for 5 min, washed in PBS three times for 5 min each time before and after incubating with 1 μg/mL DAPI for 10 min. Round and whole nuclei in nine fields of view per well were counted using ImageJ (NIH, Bethesda, MD).

Data set [2] relates to astrocytes. The data set is described as follows: Scratch wound assay (astrocyte migration). The data set is classed as cell-based, Wistar rat. The settings on record: for wound closure: monitored 72 hr, n = 5, triplicates; for ability of astrocytes to close the wound: PDM, n = 6, triplicates. As to the method:
A wound recovery assay was carried out to analyze the migration of astrocytes using the IncuCyte system (Essen BioScience Inc., Ann Arbor, MI). Primary astrocytes were seeded in ImageLock 96‐well plates (4,379, Essen BioScience) at a density of 4 × 10^4 per well. After 24 hr, standardized and reproducible (700–800 μm wide) scratch “wounds” were created in all wells using a dedicated device. Cultures were exposed to different testing conditions, for example, stressors, and were maintained and imaged at hourly intervals up to 72 hr.
Cell density was measured in the scratch area and compared to undisrupted adjacent monolayer. Relative wound density (%), a measure of wound recovery, was calculated using the formula: Relative wound density (%) = (Density of wound region at certain time point – Initial density of wound region)/(Density of intact cell region at certain time point − Initial density of wound) × 100%.

A further data set deals with GPR37L1/GPR37. The data set can be described thus: Luminescence-based GloSensor cAMP assay in astrocytes. In kind it is cell-based, Wistar rat. The settings on record: NKH477 1 μM, rat astrocytes. Here is the method:
The GloSensor assay uses genetically encoded biosensor variants with cAMP binding domains fused to mutant forms of Photinus pyralis luciferase. The luminescence of the reporter increases directly proportionally to the amount of cAMP present. Astrocytes were seeded in 96‐well plates and transduced with an AVV bearing the CMV‐driven GLO22F at multiplicity of infection (MOI) 10. After 24 hr transduction, media was exchanged for 100 μL HEPES‐buffered HBSS (pH 7.6). Cells were then incubated with 0.731 mM beetle luciferin for 2 hr in the dark. After baseline reading, NKH477 and/or TX14(A) were added to the wells and incubated for 20 min. Luminescence measurements were obtained using a Tecan microplate reader (Infinite M200 PRO).

The next data set deals with PSAP. The data set can be described thus: Immunodetection (Western blot) of PSAP in neuron-astrocyte co-culture media. Conditions: H2O2 stress applied to neurons, Figure S9. The data set is classed as cell-based, Wistar rat. For orientation: In western blotting, separated proteins are transferred to a membrane and probed.
Data set [3] addresses GPR37L1 (rat, endogenous in astrocytes) (rat (endogenous in primary astrocytes)) (UniProt Q9QYC5).
For data set [4], the target named is GPR37 (rat, endogenous in astrocytes) (rat (endogenous in primary astrocytes)) (UniProt Q9QYC6).
Data set [5] concerns neuroblastoma NS20 line. More on the design: method as in O'Brien et al., 1994. The settings on record: ref O'Brien et al., 1994; cited from earlier work.
Data set [6] has as its target neuroblastoma NS20 line. Set-up: method as in O'Brien et al., 1994. Conditions: radio-labeled Sap C, ref O'Brien et al., 1994, read-out: Kd of specific binding; cited from earlier work.
Another data set deals with receptor of ~54 kDa. The settings on record: ref Hiraiwa et al., 1997; cited from earlier work.
Another data set deals with gerbils. More on the design: method as in Sano et al., 1994. The settings on record: recombinant, chronic icv infusion, ref Sano et al., 1994; cited from earlier work.

GPR37L1 (rat, endogenous in astrocytes) (rat (endogenous in primary astrocytes)), sequence (Q9QYC5 25-481): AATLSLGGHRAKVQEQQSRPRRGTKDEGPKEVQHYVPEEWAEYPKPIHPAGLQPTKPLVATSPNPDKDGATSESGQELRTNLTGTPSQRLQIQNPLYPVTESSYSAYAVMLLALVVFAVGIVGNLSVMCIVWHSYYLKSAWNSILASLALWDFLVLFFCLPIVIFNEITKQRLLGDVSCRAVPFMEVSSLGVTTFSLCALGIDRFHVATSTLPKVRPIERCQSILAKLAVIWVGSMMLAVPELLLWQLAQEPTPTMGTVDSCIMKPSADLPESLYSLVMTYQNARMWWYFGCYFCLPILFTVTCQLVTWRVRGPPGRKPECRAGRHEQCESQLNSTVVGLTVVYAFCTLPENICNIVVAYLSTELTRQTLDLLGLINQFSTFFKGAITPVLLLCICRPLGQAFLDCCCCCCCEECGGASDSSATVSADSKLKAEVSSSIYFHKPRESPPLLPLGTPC
GPR37 (rat, endogenous in astrocytes) (rat (endogenous in primary astrocytes)), sequence (Q9QYC6 27-603): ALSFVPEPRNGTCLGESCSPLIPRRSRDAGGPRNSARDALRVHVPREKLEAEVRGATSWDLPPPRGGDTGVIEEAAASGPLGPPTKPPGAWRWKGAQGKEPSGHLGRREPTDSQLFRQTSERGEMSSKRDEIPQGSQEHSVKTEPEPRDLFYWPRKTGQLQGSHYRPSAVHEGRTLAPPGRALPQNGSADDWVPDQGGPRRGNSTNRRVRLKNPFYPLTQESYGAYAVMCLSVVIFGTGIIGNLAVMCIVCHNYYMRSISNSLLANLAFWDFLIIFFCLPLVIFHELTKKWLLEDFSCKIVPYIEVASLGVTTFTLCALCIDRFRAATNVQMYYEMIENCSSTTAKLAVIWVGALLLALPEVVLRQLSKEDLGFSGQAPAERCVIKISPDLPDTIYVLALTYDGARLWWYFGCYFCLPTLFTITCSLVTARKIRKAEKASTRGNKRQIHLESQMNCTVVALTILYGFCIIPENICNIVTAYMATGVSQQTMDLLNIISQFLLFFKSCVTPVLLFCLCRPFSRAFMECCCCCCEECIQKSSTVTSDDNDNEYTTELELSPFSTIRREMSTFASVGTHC

With `C=C(C)[C@H]1Cc2c(ccc3c2O[C@@H]2COc4cc(OC)c(OC)cc4[C@@H]2C3=O)O1` [rotenone], the “cytotoxicity (LDH release)” value in the data set with primary astrocytes (rotenone 100 μM) is “comparable degree of cytotoxicity”.
Regarding `CO[C@@H]1[C@@H]2OP(=O)(O)OC[C@H]2O[C@H]1n1c(Sc2ccc(Cl)cc2)nc2c(N)ncnc21` [8‐pCPT‐2′‐O‐Me‐cAMP], the “cell numbers (DAPI) vs control” value in the data set on astrocytes [1] (8-pCPT-2′-O-Me-cAMP 1,000 μM) is “significantly decreased cell numbers as compared to control”. Further, in the data set on astrocytes [2] (8-pCPT-2′-O-Me-cAMP 250–1,000 μM), the wound closure result was “had no effect”.
Take `C=C[C@@]1(C)CC(=O)[C@]2(O)[C@@]3(C)[C@@H](O)CCC(C)(C)[C@@H]3[C@H](OC(=O)CCN(C)C)[C@H](OC(C)=O)[C@@]2(C)O1.Cl` [NKH477]: the “increase of baseline cAMP levels” value in the data set on GPR37L1/GPR37 is ~ 20 fold. Further, the “cell numbers (DAPI) vs control” value in the data set with astrocytes [1] (NKH477 10 μM) is recorded as “significantly decreased cell numbers as compared to control”.
For `OO` [H2O2], the “PSAP in co-culture media” value in the data set with PSAP is “increase in PSAP in co‐culture media in response to H2O2 stress”. Further, in the data set with primary astrocytes (H2O2 250 μM), the “cytotoxicity (LDH release)” value is “comparable degree of cytotoxicity”. Further, in the data set with astrocytes [2] (H2O2, 5 hr pre-exposure, 48 hr), the “ability of astrocytes to close the wound” value is “drastically inhibited their ability to close the wound”.
Consider `CN[C@@H]1C[C@H]2O[C@@](C)([C@@H]1OC)n1c3ccccc3c3c4c(c5c6ccccc6n2c5c31)C(=O)NC4` [staurosporine], for which the “cytotoxicity (LDH release)” value in the data set with primary astrocytes (staurosporine 200 nM) is “comparable degree of cytotoxicity”. The “ability of astrocytes to close the wound” value with astrocytes [2] (staurosporine, 5 hr pre-exposure, 48 hr) is listed as “drastically inhibited their ability to close the wound”.
As for `O=C(Nc1ncnc2c1ncn2[C@@H]1O[C@@H]2COP(=O)(O)O[C@H]2[C@H]1O)c1ccccc1` [6‐BenZ‐cAMP], the “cell numbers (DAPI) vs control” value in the data set on astrocytes [1] (6-BenZ-cAMP 500 μM) is listed as “significantly decreased cell numbers as compared to control”. Moreover, the wound closure entry with astrocytes [2] (6-benz-cAMP 250–1,000 μM, concentration-dependent) is “greatly slowed down wound closure”.
For prosaptide TX14(A) (peptide), the inhibition of NKH477 (1 μM)-raised cAMP in rat astrocytes, GloSensor luminescence, concentration-response of TX14(A); obliterated by combined knock-down of GPR37L1 and GPR37 in [3] and in data set [4] was 17.8 nM throughout. Moreover, the percent inhibition of NKH477-mediated cAMP production in rat astrocytes at the maximal concentration of TX14(A) used (200 nM), GloSensor in data set [3] and in data set [4] was 40% in each case.

B1: Sap C: Saposin C, fragment of prosaposin (protein, UniProt P07602 311-390, looked up)
Saposin-C: SDVYCEVCEFLVKEVTKLIDNNKTEKEILDAFDKMCSKLPKSLSEECQEVVDTYGSSILSILLEEVSPELVCSMLHLCSG
modifications: Saposin-C
notes: Saposin C, fragment of prosaposin
As usually defined, the Kd is a measure of binding affinity in units of concentration. On to B1, for which the neurotrophic activity entry in the data set with neuroblastoma NS20 line [5] was “identified as neurotrophic factors”. Further, the Kd on neuroblastoma NS20 line [6] was 0.019 nM. In the data set on receptor of ~54 kDa, the “interaction with receptor (molecular mass)” value is “interacts with a receptor of ~54 kDa”.

B2: PSAP: prosaposin, neurotrophic factor, precursor of Saposin C (protein)
chain: SPVLGLRECTRGSAVWCQNVKTAADCGAVQHCLQTVWSKPTVKSLPCDICKDVITAAGNLLKDNATEQEILMYLERTCDWLPKPNMSASCKEIVDSYLPVILDMIKGQMSHPGEVCSALNLCESLQKHLAELNHQKQLESNQIPELDMAEVVAPFMANIPFLLYPQDGSHSKPQPKKANGNVCQDCIQLVTDVQEALRTNSTFVEALVDHAKEECDRLGPGMSDMCKNYINQYSEVAIQMVMHMQPKEICVLAGFCDEVKEMPMKTLVPAEVVSENVIPALGLVEPIKKDPAPAKADIYCEVCEFVVKEVAKLIDNNRTEEEILHALDKVCSKLPTSLAEQCQEVVDTYGSSILSILLDEASPELVCSMLHLCSSRGLPAATVRVMPRKDGGFCEVCKKLVGYLDRNLEKNSTKEQILAALEKGCSFLPDQYRKQCDQFVTEYEPVLIEILVEVMDPSFVCLKIGACPAAHKPLLGAEKCVWGPSYWCQNMESAALCNAVEHCRRHVWN
Take B2: the neurotrophic activity entry with neuroblastoma NS20 line [5] is on record as “identified as neurotrophic factors”. For the same molecule, the “ischemia-induced learning deficits and neuronal loss” value with gerbils is “almost completely prevented ischemia‐induced learning deficits and neuronal loss”. For the same molecule, the “number of cells in cultures (DAPI)” value in the data set on astrocytes [1] (TX14(A) 100 nM in PDM, or PSAP depletion, n = 15) is recorded as “neither depletion of PSAP nor addition of TX14(A) affected the number of cells in cultures”. For the same molecule, the “wound closure after PSAP depletion” value in the data set on astrocytes [2] (PSAP depleted by immunoadsorption vs FBS-containing media, 48 hr) is on record as “drastically slowed down by PSAP depletion”.

(Values after article PMC6492175, “Glio‐ and neuro‐protection by prosaposin is mediated by orphan G‐protein coupled receptors GPR37L1 and GPR37” (Glia, 2018).)
